Measured values: patent US10168342B2, “Lipid probes and uses thereof” (THE SCRIPPS RESEARCH INSTITUTE, priority 2015, dated 2019)

What was measured:
Assay in all cases: In situ competitive SILAC profiling with A-DA probe in (PMA-stimulated) A549 cells
Details in all cases: A549 cells, A-DA probe
[1] = target: T1, A-DA lipid probe targets in A549 cells (Homo sapiens, UniProt Q8NF37)
T1 sequence (Q8NF37 1-534): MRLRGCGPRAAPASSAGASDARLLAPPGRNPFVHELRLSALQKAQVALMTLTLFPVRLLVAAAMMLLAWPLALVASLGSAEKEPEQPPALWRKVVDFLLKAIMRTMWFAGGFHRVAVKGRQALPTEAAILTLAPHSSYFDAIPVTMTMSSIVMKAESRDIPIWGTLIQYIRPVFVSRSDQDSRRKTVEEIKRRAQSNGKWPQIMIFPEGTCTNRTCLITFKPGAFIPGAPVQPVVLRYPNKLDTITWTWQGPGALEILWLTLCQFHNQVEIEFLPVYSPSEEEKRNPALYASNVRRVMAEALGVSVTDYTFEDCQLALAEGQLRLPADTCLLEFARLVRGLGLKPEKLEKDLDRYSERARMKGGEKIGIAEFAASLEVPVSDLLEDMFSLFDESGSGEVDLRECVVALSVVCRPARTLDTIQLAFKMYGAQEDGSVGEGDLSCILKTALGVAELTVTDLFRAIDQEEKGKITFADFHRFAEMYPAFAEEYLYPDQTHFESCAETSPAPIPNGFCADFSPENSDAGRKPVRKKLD

[2] = target: A-DA lipid probe targets in A549 cells (Homo sapiens, UniProt Q9Y639)
[3] = target: T2, A-DA lipid probe targets in A549 cells (Homo sapiens, UniProt Q96G23)
T2 sequence (Q96G23 1-380): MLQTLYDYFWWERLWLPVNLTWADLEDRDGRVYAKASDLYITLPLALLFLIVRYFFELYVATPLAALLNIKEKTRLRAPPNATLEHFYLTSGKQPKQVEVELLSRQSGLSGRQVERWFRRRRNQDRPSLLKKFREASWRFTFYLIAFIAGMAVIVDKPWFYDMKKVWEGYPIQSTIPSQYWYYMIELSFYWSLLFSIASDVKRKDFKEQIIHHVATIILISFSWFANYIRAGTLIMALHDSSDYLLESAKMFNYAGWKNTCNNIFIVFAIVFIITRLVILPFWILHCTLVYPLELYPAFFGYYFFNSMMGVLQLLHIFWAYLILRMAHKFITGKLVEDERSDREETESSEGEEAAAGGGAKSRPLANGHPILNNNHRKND

[4] = target: T3, A-DA lipid probe targets in A549 cells (Homo sapiens, UniProt Q86XL3)
T3 sequence (Q86XL3 1-938): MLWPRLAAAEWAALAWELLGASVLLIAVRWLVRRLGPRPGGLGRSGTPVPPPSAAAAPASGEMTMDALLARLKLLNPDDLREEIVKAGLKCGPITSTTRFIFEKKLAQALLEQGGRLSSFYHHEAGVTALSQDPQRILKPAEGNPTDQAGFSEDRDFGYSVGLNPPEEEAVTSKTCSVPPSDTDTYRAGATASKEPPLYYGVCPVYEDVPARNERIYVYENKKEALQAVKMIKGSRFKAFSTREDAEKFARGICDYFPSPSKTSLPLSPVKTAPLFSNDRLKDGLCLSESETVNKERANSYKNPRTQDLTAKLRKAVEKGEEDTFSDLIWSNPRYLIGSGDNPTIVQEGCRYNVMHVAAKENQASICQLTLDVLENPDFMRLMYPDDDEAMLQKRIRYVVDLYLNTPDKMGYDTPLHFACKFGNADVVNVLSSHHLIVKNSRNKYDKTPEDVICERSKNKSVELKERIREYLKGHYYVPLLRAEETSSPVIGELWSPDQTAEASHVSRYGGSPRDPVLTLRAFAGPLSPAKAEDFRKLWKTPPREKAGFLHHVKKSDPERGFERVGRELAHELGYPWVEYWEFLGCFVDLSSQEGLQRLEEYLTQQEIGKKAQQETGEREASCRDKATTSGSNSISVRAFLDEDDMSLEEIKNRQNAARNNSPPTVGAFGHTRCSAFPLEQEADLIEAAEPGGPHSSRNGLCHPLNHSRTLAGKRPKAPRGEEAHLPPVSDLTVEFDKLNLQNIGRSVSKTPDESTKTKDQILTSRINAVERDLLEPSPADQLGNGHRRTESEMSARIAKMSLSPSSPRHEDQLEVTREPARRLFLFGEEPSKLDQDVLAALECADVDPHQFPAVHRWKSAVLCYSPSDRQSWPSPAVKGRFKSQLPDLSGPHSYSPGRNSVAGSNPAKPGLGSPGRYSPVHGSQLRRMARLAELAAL

[5] = target: T4, A-DA lipid probe targets in A549 cells (Homo sapiens, UniProt Q96KC8)
T4 sequence (Q96KC8 48-554): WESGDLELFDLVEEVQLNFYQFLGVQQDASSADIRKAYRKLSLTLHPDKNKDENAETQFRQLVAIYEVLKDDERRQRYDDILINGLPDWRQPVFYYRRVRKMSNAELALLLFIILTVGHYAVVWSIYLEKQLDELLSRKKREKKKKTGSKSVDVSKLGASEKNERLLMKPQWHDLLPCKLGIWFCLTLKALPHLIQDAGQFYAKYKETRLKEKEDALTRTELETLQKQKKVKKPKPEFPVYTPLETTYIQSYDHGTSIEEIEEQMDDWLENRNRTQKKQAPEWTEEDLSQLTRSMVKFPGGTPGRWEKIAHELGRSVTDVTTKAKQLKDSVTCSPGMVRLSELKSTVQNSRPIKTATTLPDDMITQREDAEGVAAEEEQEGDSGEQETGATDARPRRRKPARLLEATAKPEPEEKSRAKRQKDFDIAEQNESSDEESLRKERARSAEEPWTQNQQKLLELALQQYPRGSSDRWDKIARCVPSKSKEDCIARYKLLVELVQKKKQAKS

A-DA lipid probe targets in A549 cells (Homo sapiens, UniProt Q9Y639), sequence (Q9Y639 29-398): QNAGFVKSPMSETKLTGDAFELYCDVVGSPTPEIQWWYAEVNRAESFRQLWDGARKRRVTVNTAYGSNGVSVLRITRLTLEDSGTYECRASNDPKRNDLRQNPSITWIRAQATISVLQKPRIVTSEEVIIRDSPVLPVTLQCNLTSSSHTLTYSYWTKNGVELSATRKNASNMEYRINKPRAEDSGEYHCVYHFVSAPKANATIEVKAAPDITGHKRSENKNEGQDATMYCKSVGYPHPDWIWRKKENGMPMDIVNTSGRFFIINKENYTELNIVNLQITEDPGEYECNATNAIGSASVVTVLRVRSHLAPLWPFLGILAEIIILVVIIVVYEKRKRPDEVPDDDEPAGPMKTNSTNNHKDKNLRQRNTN

| SMILES | SILAC ratio, LPCAT1 (Q8NF37) ([1]; competitor 5 μM) | SILAC ratio, LPCAT1 (Q8NF37) ([1]; competitor 50 μM) | SILAC ratio, NPTN (Q9Y639) ([2]; competitor 5 μM) | SILAC ratio, NPTN (Q9Y639) ([2]; competitor 50 μM) | SILAC ratio, CERS2 (Q924Z4) ([3]; competitor 5 μM) | SILAC ratio, CERS2 (Q924Z4) ([3]; competitor 50 μM) | SILAC ratio, ANKLE2 (Q86XL3) ([4]; competitor 5 μM) | SILAC ratio, ANKLE2 (Q86XL3) ([4]; competitor 50 μM) | SILAC ratio, DNAJC1 (Q96KC8) ([5]; competitor 5 μM) | SILAC ratio, DNAJC1 (Q96KC8) ([5]; competitor 50 μM) | SILAC ratio, LPCAT1 (Q8NF37) ([1]; competitor 25 μM) | SILAC ratio, NPTN (Q9Y639) ([2]; competitor 25 μM) | SILAC ratio, CERS2 (Q924Z4) ([3]; competitor 25 μM) | SILAC ratio, ANKLE2 (Q86XL3) ([4]; competitor 25 μM) | SILAC ratio, DNAJC1 (Q96KC8) ([5]; competitor 25 μM) |
| --- | --- | --- | --- | --- | --- | --- | --- | --- | --- | --- | --- | --- | --- | --- | --- |
| C=CCN(C)CCCCCCOc1ccc(C(=O)c2ccc(Br)cc2)c(F)c1 [Ro488071] | 1.6 | 3.1 | 1.3 | 3.0 | 1.5 | 2.5 | 1.7 | 3.1 | 1.6 | 3.9 |  |  |  |  |  |
| O=C(/C=C/c1cccnc1)NCCCCC1CCN(C(=O)c2ccccc2)CC1 [FK-866, reference compound] |  |  |  |  |  |  |  |  |  |  | 1.4 | 1.4 | 1.4 | 1.3 | 1.3 |
